Assays:
Axl = Axl (Homo sapiens (Human), UniProt P30530); experiment: TAM Enzymatic Assay (HTRF), phosphor-Axl; format: biochemical; settings: 5.1 nM phosphor-Axl, 60 min room temperature
Procedure: Autophosphorylation of Axl was carried out by incubating the recombinant Axl protein (Life Technologies, PV4275) in buffer containing 50 mM Tris, pH7.5, 0.2 mg/ml Axl, 5 mM ATP, 20 mM MgCl2 and 2 mM DTT at room temperature for 1 hour.
(§1) The kinase assay buffer contained 50 mM HEPES, pH7.5, 10 mM MgCl2, 1 mM EGTA, 0.01% NP-40 and 2 mM DTT. 0.1 ul test compounds dissolved in DMSO were transferred from compound plates to white 384-well assay plates (Greiner […] plates). […] 4 ul enzyme solution (or assay buffer for the enzyme blank) was added to the appropriate wells in each plate, and then 4 ul/well substrate solution was added to initiate the reaction. The plate was protected from light and incubated at room temperature for 60 min. […] The plate was incubated for 1 h at room temperature, and HTRF (homogenous time resolved fluorescence) signal was measured on a PHERAstar FS plate reader (BMG labtech). Percentage of inhibition was calculated for each concentration and IC50 value was generated from curve fitting with GraphPad Prism software.

Tyro3 = Tyro3 (Homo sapiens (Human), UniProt Q06418); experiment: TAM Enzymatic Assay (HTRF), Tyro3; format: biochemical; settings: 0.366 nM Tyro3, 60 min room temperature
Procedure: as §1

c-Mer = c-Mer (Homo sapiens (Human), UniProt Q12866); experiment: TAM Enzymatic Assay (HTRF), c-Mer; format: biochemical; settings: 0.0625 nM c-Mer, 60 min room temperature
Procedure: as §1

NK cells = settings: Paolino et al., 2014; cited from earlier work
[1] = test system: tumor models with different histologies; settings: Paolino et al., 2014; cited from earlier work

Sequence of Axl (P30530 26-894): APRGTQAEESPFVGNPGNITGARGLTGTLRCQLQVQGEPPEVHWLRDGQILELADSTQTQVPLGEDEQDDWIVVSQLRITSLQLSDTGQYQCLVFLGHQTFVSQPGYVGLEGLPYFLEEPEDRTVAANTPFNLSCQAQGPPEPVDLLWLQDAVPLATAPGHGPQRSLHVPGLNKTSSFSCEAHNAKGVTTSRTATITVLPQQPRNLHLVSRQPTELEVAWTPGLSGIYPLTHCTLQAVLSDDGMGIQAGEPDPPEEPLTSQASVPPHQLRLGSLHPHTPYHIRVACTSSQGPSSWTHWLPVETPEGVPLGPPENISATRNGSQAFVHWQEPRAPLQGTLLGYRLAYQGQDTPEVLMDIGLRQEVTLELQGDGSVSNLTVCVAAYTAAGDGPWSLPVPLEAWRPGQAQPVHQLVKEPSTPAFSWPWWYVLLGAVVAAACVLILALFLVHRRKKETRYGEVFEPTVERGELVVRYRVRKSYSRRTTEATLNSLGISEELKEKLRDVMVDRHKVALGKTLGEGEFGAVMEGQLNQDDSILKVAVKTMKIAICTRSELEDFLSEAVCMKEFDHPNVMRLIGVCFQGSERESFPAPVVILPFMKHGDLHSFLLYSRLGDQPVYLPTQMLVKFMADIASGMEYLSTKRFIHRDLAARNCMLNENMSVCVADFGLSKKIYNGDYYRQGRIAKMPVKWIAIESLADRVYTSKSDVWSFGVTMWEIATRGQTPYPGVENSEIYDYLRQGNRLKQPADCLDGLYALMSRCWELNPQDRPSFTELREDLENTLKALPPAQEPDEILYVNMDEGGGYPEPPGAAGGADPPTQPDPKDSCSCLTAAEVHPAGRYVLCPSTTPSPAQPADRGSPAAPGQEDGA
Sequence of c-Mer (Q12866 21-999): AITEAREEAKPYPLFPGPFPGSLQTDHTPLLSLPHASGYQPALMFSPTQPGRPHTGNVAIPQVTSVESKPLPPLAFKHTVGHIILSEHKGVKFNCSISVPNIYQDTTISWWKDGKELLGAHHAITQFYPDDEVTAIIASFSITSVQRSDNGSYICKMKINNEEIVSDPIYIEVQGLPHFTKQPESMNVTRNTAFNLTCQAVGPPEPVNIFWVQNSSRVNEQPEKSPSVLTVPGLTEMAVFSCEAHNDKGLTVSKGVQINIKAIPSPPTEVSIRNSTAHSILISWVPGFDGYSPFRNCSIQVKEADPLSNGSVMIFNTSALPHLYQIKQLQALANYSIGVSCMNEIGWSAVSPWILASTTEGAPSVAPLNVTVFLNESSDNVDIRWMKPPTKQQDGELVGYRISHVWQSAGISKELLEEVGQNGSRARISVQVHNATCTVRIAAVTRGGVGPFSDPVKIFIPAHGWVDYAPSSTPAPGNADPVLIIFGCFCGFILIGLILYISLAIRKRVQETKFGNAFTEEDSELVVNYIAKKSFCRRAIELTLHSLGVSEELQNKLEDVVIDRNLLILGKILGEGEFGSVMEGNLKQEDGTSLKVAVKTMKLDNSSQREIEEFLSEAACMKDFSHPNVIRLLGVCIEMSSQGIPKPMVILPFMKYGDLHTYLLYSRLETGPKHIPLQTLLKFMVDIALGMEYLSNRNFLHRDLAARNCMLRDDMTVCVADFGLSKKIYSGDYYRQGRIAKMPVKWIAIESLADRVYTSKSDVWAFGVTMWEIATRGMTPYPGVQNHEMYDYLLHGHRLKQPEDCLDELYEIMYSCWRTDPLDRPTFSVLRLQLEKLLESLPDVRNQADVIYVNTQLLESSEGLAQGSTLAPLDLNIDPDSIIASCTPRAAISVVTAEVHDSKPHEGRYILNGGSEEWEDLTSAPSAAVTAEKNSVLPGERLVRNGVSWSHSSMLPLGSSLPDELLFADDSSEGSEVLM
Sequence of Tyro3 (Q06418 41-890): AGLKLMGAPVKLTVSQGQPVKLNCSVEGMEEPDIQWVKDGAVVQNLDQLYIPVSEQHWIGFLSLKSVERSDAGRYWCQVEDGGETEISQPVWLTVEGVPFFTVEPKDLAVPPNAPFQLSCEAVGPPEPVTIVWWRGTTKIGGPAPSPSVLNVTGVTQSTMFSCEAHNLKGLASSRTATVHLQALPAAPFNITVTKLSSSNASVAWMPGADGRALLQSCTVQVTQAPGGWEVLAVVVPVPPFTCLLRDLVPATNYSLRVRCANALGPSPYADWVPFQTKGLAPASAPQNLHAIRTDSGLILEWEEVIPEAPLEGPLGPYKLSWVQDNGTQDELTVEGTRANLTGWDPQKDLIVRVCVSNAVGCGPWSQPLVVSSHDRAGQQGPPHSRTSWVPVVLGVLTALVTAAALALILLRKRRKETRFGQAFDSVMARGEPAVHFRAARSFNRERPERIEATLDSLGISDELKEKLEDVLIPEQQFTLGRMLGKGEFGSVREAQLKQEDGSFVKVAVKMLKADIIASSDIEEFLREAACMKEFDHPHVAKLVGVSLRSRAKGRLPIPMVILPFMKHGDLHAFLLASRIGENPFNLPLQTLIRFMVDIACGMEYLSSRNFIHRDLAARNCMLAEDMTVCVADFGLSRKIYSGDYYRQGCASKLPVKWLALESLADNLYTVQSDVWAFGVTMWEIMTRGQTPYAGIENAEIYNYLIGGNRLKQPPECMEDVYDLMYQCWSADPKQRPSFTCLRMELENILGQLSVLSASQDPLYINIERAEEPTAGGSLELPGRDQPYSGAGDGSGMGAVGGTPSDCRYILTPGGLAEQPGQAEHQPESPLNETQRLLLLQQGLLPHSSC

IC50 (Axl) [nM]	IC50 (Tyro3) [nM]	IC50 (c-Mer) [nM]	SMILES	activation of NK cells (NK cells)	metastasis in tumor models [1]
< 5	> 100		CC(O)Cn1cc(C(=O)Nc2ccc(-c3cc(C4CCN(C(=O)C5CC5)CC4)n4ncnc(N)c34)cc2)c(=O)n(-c2ccccc2)c1=O (racemic) [Example 80, N-(4-(4-Amino-7-(1-(cyclopropanecarbonyl)piperidin-4-yl)pyrrolo[1,2-f][1,2,4]triazin-5-yl)phenyl)-1-(2-hydroxypropyl)-2,4-dioxo-3-phenyl-1,2,3,4-tetrahydropyrimidine-5-carboxamide]		
< 5		≤ 5	CC(C)n1cc(C(=O)Nc2ccc(-c3cc(C4CCN(C5CCN(C)C5=O)CC4)n4ncnc(N)c34)cc2)c(=O)n(-c2ccccc2)c1=O (racemic) [Example 82, N-(4-(4-Amino-7-(1-(1-methyl-2-oxopyrrolidin-3-yl)piperidin-4-yl)pyrrolo[1,2-f][1,2,4]triazin-5-yl)phenyl)-1-isopropyl-2,4-dioxo-3-phenyl-1,2,3,4-tetrahydropyrimidine-5-carboxamide]		
< 5	10 to 100	≤ 5	CC(=O)c1cc(C(=O)Nc2ccc(-c3cc(C4CCN(C(=O)C(C)C)CC4)n4ncnc(N)c34)cc2)c(=O)n(-c2ccccc2)c1C [Example 112, 5-Acetyl-N-(4-(4-amino-7-(1-isobutyrylpiperidin-4-yl)pyrrolo[1,2-f][1,2,4]triazin-5-yl)phenyl)-6-methyl-2-oxo-1-phenyl-1,2-dihydropyridine-3-carboxamide]		
			CCOc1cn(-c2ccc(F)cc2C)nc1C(=O)Nc1ccc(Oc2ccnc3cc(OC)c(OC)cc23)c(F)c1 [LDC1267]	activates NK cells	blocks metastasis

Source: US10442810B2, “Pyrrolotriazine compounds as TAM inhibitors” (Incyte Corporation, priority 2016, dated 2019)
